# How the values were obtained:
# [1] = biological target: human 5-HT2B (Homo sapiens, UniProt P41595); assay: Inositol 1-phosphate; assay type: cell-based
# [2] = biological target: T1, ADRA2C (Homo sapiens, UniProt P18825); assay: DiscoverX gpcrMAX panel, antagonist mode, ADRA2C; settings: 10 μM, percent inhibition of EC80 reference agonist
# T1 sequence (P18825 1-462): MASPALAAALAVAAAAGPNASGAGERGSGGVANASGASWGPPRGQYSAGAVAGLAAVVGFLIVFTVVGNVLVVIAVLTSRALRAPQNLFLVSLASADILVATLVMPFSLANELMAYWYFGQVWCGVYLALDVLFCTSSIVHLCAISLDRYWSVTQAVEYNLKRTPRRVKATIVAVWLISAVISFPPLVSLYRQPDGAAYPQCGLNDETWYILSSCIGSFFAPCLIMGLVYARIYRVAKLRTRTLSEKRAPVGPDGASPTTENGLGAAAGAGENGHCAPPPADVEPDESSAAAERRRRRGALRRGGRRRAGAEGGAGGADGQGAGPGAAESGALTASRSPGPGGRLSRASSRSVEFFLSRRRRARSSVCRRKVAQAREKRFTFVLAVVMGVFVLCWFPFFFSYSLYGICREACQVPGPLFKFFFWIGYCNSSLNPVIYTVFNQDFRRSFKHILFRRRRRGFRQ
# [3] = biological target: HTR2A (Homo sapiens, UniProt P28223); assay: DiscoverX gpcrMAX panel, antagonist mode, HTR2A; assay type: cell-based; settings: 10 μM, percent inhibition of EC80 reference agonist
# [4] = biological target: D2R (short and long isoforms) (Homo sapiens, UniProt P14416); assay: DiscoverX gpcrMAX panel, agonist mode, D2R; settings: 10 μM
# [5] = pKa titration; assay type: physicochemical
# [6] = tested on: all other receptor subtypes (D1R, D2R, D4R, D5R); assay type: cell-based; settings: β-arrestin recruitment
# [7] = tested on: bacteria; assay: Ames reverse mutation assay
# [8] = biological target: D2R (Homo sapiens, UniProt P14416); assay: β-arrestin recruitment DiscoverX PathHunter assay, agonist mode, D2R; assay type: cell-based
# [9] = biological target: human D2RL (Homo sapiens, UniProt P14416); assay: [3H]-methylspiperone competition binding, D2R membranes
# [10] = biological target: T2, D3R (Homo sapiens, UniProt P35462); assay: β-arrestin recruitment DiscoverX PathHunter assay, agonist mode, D3R; assay type: cell-based
# [11] = biological target: alpha2B-adrenergic receptor (Homo sapiens, UniProt P18089); settings: 10 μM
# [12] = tested on: 168 known GPCRs; settings: 10 μM
# [13] = biological target: T2, D3R; settings: 10 μM
# [14] = tested on: D3R-expressing dopaminergic neurons derived from human iPSCs; assay: MTT cell viability, protection from 6-OHDA-induced cell death
# [15] = biological target: chemokine CXCR7 receptor (Homo sapiens, UniProt P25106); assay: DiscoverX gpcrMAX panel, agonist mode, CXCR7; settings: 10 μM
# [16] = biological target: T3, D4R (Homo sapiens, UniProt P21917); assay: DiscoverX gpcrMAX panel, agonist mode, D4R; settings: 10 μM
# T3 sequence (P21917 1-419): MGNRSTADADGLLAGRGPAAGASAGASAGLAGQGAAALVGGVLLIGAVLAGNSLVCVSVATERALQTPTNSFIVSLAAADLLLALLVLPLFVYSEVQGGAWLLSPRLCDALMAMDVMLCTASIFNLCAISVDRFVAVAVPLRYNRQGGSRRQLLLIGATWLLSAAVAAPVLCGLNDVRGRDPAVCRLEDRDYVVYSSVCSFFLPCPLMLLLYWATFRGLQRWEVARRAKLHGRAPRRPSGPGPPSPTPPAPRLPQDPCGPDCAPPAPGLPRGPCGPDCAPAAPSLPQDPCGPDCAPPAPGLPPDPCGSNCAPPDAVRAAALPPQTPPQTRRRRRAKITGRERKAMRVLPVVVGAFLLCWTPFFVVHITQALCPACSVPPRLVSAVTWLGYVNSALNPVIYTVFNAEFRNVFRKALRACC
# T2 sequence (P35462 whole entry): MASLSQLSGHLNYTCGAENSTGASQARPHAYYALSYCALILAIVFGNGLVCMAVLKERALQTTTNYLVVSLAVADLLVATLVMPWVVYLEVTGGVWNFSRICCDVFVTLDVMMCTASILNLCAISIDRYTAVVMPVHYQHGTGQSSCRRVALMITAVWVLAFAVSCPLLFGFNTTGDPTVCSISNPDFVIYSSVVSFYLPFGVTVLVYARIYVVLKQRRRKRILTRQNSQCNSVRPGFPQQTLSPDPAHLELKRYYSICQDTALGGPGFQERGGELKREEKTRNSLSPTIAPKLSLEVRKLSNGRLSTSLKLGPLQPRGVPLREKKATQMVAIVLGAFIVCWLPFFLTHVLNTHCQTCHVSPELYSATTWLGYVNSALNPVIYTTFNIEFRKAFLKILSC
# D2R, sequence (P14416 whole entry): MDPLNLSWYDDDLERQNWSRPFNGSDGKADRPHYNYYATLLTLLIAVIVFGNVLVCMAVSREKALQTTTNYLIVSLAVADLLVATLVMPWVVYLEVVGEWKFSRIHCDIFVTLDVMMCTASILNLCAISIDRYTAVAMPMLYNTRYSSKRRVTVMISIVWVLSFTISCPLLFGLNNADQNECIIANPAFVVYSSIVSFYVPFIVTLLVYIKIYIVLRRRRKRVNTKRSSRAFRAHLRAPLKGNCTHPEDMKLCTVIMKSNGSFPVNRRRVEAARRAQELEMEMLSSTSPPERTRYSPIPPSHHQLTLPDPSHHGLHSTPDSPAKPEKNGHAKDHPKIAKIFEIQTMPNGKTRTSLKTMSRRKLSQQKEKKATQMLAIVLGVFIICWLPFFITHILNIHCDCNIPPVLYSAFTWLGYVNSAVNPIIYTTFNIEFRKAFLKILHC
# human 5-HT2B, sequence (P41595 whole entry): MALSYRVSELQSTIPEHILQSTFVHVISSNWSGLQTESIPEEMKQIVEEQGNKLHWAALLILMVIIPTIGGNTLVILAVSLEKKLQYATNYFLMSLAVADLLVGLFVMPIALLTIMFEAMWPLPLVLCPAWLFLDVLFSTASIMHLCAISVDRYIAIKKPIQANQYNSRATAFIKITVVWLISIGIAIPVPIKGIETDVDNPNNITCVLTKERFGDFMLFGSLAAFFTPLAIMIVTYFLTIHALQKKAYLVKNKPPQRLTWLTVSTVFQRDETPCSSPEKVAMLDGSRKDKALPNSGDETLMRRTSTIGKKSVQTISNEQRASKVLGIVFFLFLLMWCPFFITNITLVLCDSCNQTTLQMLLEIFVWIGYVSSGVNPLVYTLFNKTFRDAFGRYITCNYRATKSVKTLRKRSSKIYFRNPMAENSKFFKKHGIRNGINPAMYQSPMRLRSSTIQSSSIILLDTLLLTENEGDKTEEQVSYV
# D2R (short and long isoforms), sequence (P14416 1-414 isoform P14416-2): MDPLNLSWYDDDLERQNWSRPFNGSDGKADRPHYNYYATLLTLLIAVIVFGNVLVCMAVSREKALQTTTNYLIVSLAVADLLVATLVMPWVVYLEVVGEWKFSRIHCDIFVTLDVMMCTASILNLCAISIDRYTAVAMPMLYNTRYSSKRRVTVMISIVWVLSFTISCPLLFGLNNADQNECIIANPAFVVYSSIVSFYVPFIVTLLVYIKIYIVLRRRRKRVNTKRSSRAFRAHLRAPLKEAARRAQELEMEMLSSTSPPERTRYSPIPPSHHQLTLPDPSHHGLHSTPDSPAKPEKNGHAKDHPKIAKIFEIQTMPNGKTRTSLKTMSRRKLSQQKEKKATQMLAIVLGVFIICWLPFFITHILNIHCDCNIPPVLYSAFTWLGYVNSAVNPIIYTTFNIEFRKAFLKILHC
# chemokine CXCR7 receptor, sequence (P25106 whole entry): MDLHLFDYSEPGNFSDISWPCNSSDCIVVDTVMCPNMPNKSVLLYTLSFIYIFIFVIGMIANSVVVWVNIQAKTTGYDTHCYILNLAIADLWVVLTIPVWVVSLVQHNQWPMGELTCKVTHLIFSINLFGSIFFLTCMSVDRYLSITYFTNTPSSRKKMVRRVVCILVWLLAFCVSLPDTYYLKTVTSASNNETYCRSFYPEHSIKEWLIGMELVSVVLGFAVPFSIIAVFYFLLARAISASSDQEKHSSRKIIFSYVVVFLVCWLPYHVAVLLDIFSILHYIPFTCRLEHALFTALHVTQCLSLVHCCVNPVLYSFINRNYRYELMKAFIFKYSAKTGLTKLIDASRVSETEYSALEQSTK
# human D2RL, sequence (P14416 whole entry): as the sequence (P14416 whole entry) above
# HTR2A, sequence (P28223 whole entry, canonical isoform): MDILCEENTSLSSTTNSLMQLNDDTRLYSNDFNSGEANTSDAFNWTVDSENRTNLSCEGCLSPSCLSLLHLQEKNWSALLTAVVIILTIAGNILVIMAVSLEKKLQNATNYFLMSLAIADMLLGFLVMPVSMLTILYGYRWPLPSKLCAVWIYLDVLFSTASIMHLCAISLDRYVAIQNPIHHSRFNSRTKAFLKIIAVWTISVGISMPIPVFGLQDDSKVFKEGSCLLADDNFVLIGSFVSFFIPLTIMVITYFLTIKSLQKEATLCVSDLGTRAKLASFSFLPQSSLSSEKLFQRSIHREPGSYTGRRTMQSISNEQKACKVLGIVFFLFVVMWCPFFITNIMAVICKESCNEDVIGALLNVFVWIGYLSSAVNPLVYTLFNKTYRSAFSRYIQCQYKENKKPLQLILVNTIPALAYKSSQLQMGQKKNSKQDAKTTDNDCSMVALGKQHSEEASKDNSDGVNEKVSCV
# alpha2B-adrenergic receptor, sequence (P18089 whole entry): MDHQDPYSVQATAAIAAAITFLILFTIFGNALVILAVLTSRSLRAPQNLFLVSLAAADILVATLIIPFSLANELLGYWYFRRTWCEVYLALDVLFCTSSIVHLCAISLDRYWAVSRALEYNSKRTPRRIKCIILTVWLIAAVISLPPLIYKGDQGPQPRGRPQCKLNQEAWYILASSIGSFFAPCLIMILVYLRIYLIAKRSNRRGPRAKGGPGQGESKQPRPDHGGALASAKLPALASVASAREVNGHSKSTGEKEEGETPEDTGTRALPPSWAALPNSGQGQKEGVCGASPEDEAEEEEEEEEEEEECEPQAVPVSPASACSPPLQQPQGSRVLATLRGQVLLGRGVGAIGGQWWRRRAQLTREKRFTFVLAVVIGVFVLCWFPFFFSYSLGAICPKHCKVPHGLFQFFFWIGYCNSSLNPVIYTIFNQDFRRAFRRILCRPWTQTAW
structure (smiles),measurement,setting,value
"Cn1ccc2cc3c(cc21)CCN3C(=O)Nc1cccnc1 [SB206553, reference compound]",IC50,[1],13 nM
"COc1ccc(OCCN2CCN(C(=O)c3cc4ccccc4[nH]3)CC2)cc1 [Compound 20, (1H-Indol-2-yl)(4-(2-(4-methoxyphenoxy)ethyl)piperazin-1-yl)methanone]","partial antagonist activity, ADRA2C",[2],36%
same,"partial antagonist activity, HTR2A",[3],37%
same,5-HT2B agonist activity (IP1 accumulation),[1]; 10 μM,no agonist activity
same,"agonist activity, D2R (gpcrMAX)",[4],"small, but measurable agonist responses"
same,pKa,[5],8.62
same,agonist efficacy at other dopamine receptor subtypes,[6],minimal agonist efficacy
same,AMES reverse mutation assay,[7],no toxicity was observed
"COc1ccc2[nH]c(C(=O)N3CCN(CCOc4cccnc4)CC3)cc2c1 [Compound 59, (5-Methoxy-1H-indol-2-yl)(4-(2-(pyridin-3-yloxy)ethyl)piperazin-1-yl)methanone]",D2R agonist activity Emax,[8]; percentage of the maximum dopamine response,97 ± 2.8 % control
"COc1ccc(OCCN2CCN(C(=O)c3ccc(OC)cc3)CC2)cc1 [Compound 1, (4-(2-(4-Methoxyphenoxy)ethyl)piperazin-1-yl)(4-methoxyphenyl)methanone]",IC50 for inhibiting [3H]-methylspiperone binding to the D2R,[9],no measurable ability to displace binding
same,D2R agonist activity EC50,"[8]; β-arrestin recruitment (DiscoverX), agonist mode",No measurable agonist activity
"COc1ccc2cc(C(=O)N3CCN(CCOc4cccnc4)CC3)[nH]c2c1 [Compound 58, (6-Methoxy-1H-indol-2-yl)(4-(2-(pyridin-3-yloxy)ethyl)piperazin-1-yl)methanone]",D3R agonist activity EC50,[10],single-digit nanomolar range
"CCCN[C@H]1CCc2nc(N)sc2C1 [Pramipexole, pramipexole]","agonist activity, alpha2B-adrenergic receptor (gpcrMAX)",[11],partial agonist activity
same,antagonist activity at any of the GPCRs tested,[12],did not exhibit antagonist activity
same,"agonist activity, D3R (gpcrMAX)",[13],full agonist activity
same,concentration giving significant reduction in 6-OHDA-induced cell death,"[14]; 24 h pretreatment, 30 μM 6-OHDA 24 h, MTT",500 nM
same,"agonist activity, D2R (gpcrMAX)",[4],full agonist activity
"NCCc1cc(O)c(O)cc1O [Compound 6-OHDA, 6-hydroxydopamine]",reduction of cell viability,"[14]; 30 μM, 24 hr, no drug (vehicle)",62 ± 8%
CCCN(CC[C@]1(O)C[C@H](NC(=O)c2ccc3ccccc3c2)C1)[C@H]1CCc2nc(N)sc2C1 [CJ-1639],"agonist activity, CXCR7 (gpcrMAX)",[15],partial agonist activities
same,"agonist activity, D4R (gpcrMAX)",[16],partial agonist activities
same,"agonist activity, D3R (gpcrMAX)",[13],full agonist

# Source: paper PMC7262777 (Journal of medicinal chemistry, 2020)
